Results from US20030012820A1, “Compressible guaifenesin compositions, method for making same and method for making compressed guaifenesin dosage forms therefrom” (priority 2001, published 2003).

Key:
[1] = Particle size distribution by sieve analysis; format: physicochemical
From the text: USP grade guaifenesin powders GP-A, GP-B, GP-C and GP-D having the respective particle size distributions set forth below, were used in the examples. Guaifenesin powder GP-A was made by Rhodia Inc., guaifenesin powders GP-B, GP-C and GP-D were obtained from other commercial sources. In the tables below, the result “% R” for a sample means the amount of sample retained on the corresponding screen size set forth in the table, expressed as a percent by weight of the total sample amount, and the result “% CR” for a sample means the cumulative amount of the sample retained on all screen sizes larger than the corresponding screen size, expressed as a percent by weight of the total sample amount.
(§1) The particle size distribution, bulk density, moisture content and flow properties were measured for each of the compositions of Examples 1-10 and for Comparison Examples C1-C4. Comparison Examples C1-C4 were commercially available directly compressible guaifenesin compositions. Particle size distribution was measured by sieve analysis using screens of the indicated mesh sizes. Bulk density was measured using a VanKel cylinder. Moisture content was measured by Karl Fischer titration. Flow properties were measured using a VanKel flowmeter with a strip chart recorder. […] Results are given below in TABLES 1A, 1B and 1C

[2] = Bulk density, VanKel cylinder; format: physicochemical
Method: as §1

% CR (cumulative amount retained) ([1]; US Mesh 20 (850 μm)) | % R (amount retained on screen) ([1]; US Mesh 20 (850 μm)) | % CR (cumulative amount retained) ([1]; US Mesh 40 (425 μm)) | % R (amount retained on screen) ([1]; US Mesh 40 (425 μm)) | % CR (cumulative amount retained) ([1]; US Mesh 60 (250 μm)) | % R (amount retained on screen) ([1]; US Mesh 60 (250 μm)) | % CR (cumulative amount retained) ([1]; US Mesh 80 (180 μm)) | % R (amount retained on screen) ([1]; US Mesh 80 (180 μm)) | % CR (cumulative amount retained) ([1]; US Mesh 100 (150 μm)) | % R (amount retained on screen) ([1]; US Mesh 100 (150 μm)) | % CR (cumulative amount retained) ([1]; US Mesh 200 (75 μm)) | % R (amount retained on screen) ([1]; US Mesh 200 (75 μm)) | % CR (cumulative amount retained) ([1]; US Mesh 325 (45 μm)) | % R (amount retained on screen) ([1]; US Mesh 325 (45 μm)) | % CR (cumulative amount retained) ([1]; pan (<45 μm)) | % R (amount retained) ([1]; pan (<45 μm)) | Bulk Density [2] | SMILES
0% | 0% | 0% | 0% | 0.8% | 0.8% | 3.2% | 2.4% | 7.6% | 4.4% | 38.4% | 30.8% | 76.8% | 38.4% | 100% | 23.2% | 0.45 g/cc | COc1ccccc1OCC(O)CO (single isomer, unassigned) [GP-A, guaifenesin]
0% | 0% | 2.0% | 2.0% | 3.2% | 1.2% | 3.2% | 0% | 4.0% | 0.8% | 11.2% | 7.2% | 77.6% | 66.4% | 100% | 22.4% | 0.35 g/cc | COc1ccccc1OCC(O)CO (single isomer, unassigned) [GP-C, guaifenesin]
0% | 0% | 0% | 0% | 0% | 0% | 3.2% | 3.2% | 9.6% | 6.4% | 60.0% | 50.4% | 89.6% | 29.6% | 100% | 10.4% | 0.40 g/cc | COc1ccccc1OCC(O)CO (single isomer, unassigned) [GP-D, guaifenesin]
0% | 0% | 0.4% | 0.4% | 0.4% | 0% | 2.4% | 2.0% | 3.2% | 0.8% | 11.2% | 8.0% | 58.0% | 46.8% | 100% | 42.0% | 0.41 g/cc | COc1ccccc1OCC(O)CO (single isomer, unassigned) [GP-B, guaifenesin]
